Test results published in paper PMC8151276, “An Integrated Approach toward NanoBRET Tracers for Analysis of GPCR Ligand Engagement” (Molecules, 2021).

How the values were obtained:
GABBR1 = target: T1, GABBR1 (Homo sapiens, UniProt Q9UBS5); experiment: NanoBRET screen HiBiT-GABBR1 in HEK293; assay type: binding
T1 construct: purchased Promega (in-house HiBiT-GPCR construct library, NanoBRET)
Experimental: (§1) Each tracer candidate was screened across the entire library of HiBiT-GPCR constructs using NanoBRET as the detection modality. As depicted in Figure 4A, the specificity of interactions was evaluated through decrease in BRET due to competitive displacement of a bound tracer by excess parental compound. Each tracer was analyzed for binding to each HiBiT-GPCR fusion in the absence and in the presence of competing parental compound. Briefly, HEK293 cells were transfected with HiBiT-GPCR constructs diluted into promoterless DNA to reduce expression and maximize translocation to the cell surface. Each tracer candidate was then screened at concentrations of 1 μM and 0.1 μM across cells expressing these fusions. Cells were treated for 1.5 h with tracer either alone or in the presence of 20 μM competing parental compound (i.e., control). BRET was measured upon addition of purified LgBiT and subsequent complementation with HiBiT genetically fused to a GPCR. The specificity of interactions was assessed through a decrease in BRET signal due to competitive displacement of the bound tracer. To further gauge the robustness of these interactions, the fold response over the control (i.e., BRETtracer/BRETcontrol) was calculated. We chose a 1.5-fold response, which translates to ≥7-fold signal over noise as the minimal threshold required to score an interaction as positive. […]. Below we highlight the screening results obtained for our exemplary fluorescent tracers based on Clozapine, Amitriptyline and AZD1283.
(§2) HiBiT-GPCR DNA constructs were diluted in 10 mM Tris pH 8 to a final concentration of 0.01 μg/μL, arrayed in 96-well plates and stored at −20 °C. For transfection, HEK293 cells were suspended in Opti-MEM (without phenol red) supplemented with 2% fetal bovine serum (Seradigm) and 100 units/mL penicillin–streptomycin (Gibco) at a final concentration of 220,000 cells/mL and dispensed into white 96-well plates at 90 μL/well. Subsequent transfections and screens were carried using an Agilent Bravo Automated Liquid Handling Platform. First, the 96-well HiBiT DNA arrays were diluted 25-fold in Opti-MEM (without serum or phenol red) to a final concentration of 0.0004 μg/μL and 20 μL of the diluted DNAs were transferred into new 96-well plates. Next, promoterless carrier DNA (1 μg/μL) was diluted 25-fold (0.04 μg/μL) and then dispensed into the diluted arrays at 20 μL/well. Following brief mixing, Viafect transfection reagent (Promega) diluted 16-fold into Opti-MEM was dispensed into the plates at 40 μL/well. After mixing by pipetting, plates were incubated for 10 min on the pipetting station deck. The DNA-transfection reagent complexes were then added to plates containing cells. To facilitate the screen, 10 μL of DNA-transfection reagent complexes were added in duplicates to the top 4 and bottom 4 rows, resulting in two identical 48-well arrays per plate. Plates with transfected cells were incubated for 18–20 h at 37 °C/5% CO2. A screen of each tracer across the entire library using two different concentrations requires duplicate plates of transfected cells. Depending on the number of tracers being screened, transfections can be scaled up using the same ratios. The next day, for each tracer, four 20× screening solutions in tracer dilution buffer (Promega) were prepared: two duplicates at final concentration of 20 μM and two duplicates at a final concentration of 2 μM. A competing unmodified compound was added to one of each duplicate at a final concentration of 400 μM. The four resulting solutions were diluted 4-fold in Opti-MEM without serum or phenol red to generate 5× solutions (5 µM and 0.5 µM tracer +/− 100 μM competing compound). To screen the library, a BioTek MultiFlo FX liquid dispenser was used to dispense 22.5 µL of tracer solution to the top 4 rows and 22.5 µL tracer + competing compound solution to the 4 bottom rows. Plates were briefly mixed on an orbital shaker and incubated for 1.5 h at room temperature. […]

MLNR = target: T2, MLNR (Homo sapiens, UniProt O43193); experiment: NanoBRET screen HiBiT-MLNR in HEK293; assay type: binding
T2 construct: purchased Promega (in-house HiBiT-GPCR construct library, NanoBRET)
Experimental: as §1, §2

[1] = tracer at 0.1μM, listed as amitriptyline-b-2-NB590

T1 sequence (Q9UBS5 15-961 limits assumed): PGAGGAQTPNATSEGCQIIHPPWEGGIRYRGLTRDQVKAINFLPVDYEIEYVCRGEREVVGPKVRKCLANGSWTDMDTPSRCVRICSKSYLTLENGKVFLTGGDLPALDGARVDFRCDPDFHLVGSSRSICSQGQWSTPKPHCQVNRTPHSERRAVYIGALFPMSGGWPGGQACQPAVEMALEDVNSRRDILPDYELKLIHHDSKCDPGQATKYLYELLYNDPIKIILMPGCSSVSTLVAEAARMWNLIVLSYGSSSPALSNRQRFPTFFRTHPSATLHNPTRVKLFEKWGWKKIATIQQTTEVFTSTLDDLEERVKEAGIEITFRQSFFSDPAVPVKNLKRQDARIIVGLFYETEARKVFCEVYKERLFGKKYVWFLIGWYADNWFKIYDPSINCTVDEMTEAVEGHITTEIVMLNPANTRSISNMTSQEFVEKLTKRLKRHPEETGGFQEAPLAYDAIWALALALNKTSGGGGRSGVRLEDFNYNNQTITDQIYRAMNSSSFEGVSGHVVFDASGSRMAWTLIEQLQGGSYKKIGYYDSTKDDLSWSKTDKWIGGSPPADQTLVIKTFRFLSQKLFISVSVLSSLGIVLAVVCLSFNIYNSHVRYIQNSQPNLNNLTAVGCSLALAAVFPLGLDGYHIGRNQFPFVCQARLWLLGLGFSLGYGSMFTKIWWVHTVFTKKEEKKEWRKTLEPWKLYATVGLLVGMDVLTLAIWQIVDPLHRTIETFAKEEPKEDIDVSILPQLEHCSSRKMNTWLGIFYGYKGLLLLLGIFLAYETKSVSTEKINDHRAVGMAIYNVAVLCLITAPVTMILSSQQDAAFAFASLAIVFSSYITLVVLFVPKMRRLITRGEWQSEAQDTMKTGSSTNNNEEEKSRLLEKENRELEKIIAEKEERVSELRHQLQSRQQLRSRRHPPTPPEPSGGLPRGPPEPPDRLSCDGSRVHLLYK
T2 sequence (O43193 whole entry): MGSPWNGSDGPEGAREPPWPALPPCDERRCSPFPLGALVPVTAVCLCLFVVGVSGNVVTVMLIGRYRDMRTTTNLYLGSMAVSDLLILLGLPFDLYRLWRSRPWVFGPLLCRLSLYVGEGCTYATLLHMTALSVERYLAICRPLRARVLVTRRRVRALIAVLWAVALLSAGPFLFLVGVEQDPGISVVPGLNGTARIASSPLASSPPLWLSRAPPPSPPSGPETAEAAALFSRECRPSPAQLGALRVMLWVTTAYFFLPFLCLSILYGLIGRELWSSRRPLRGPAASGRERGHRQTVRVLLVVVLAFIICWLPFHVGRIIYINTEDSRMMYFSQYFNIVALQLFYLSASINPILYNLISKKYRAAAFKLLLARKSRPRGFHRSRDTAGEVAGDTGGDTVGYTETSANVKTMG

SMILES	NanoBRET Fold Response (GABBR1; GABBR1, tracer 0.1μM)	NanoBRET Fold Response (GABBR1; GABBR1, tracer 1μM)	NanoBRET Fold Response (MLNR; MLNR, tracer 0.1μM)	NanoBRET Fold Response (MLNR; MLNR, tracer 1μM)	also measured
CCOC(=O)c1cc(C#N)c(N2CCC(C(=O)NS(=O)(=O)Cc3ccccc3/C=C/C(=O)NCCNC(=O)CCc3ccc4n3[B-](F)(F)[N+]3=C(c5ccc[nH]5)C=CC3=C4)CC2)nc1C [AZD1283-1-NB590]	–	–	–	–	NanoBRET Fold Response (GABBR1; GABBR1, 0.1μM): 1.05; NanoBRET Fold Response (GABBR1; GABBR1, 1μM): 1.13; NanoBRET Fold Response (MLNR; MLNR, 0.1μM): 1.06; NanoBRET Fold Response (MLNR; MLNR, 1μM): 1.01
N#CN=C(NCCCOc1cccc(CN2CCCCC2)c1)NCCNC(=O)CCOCCOCCOCCOCCNC(=O)CCc1ccc2n1[B-](F)(F)[N+]1=C(c3ccc[nH]3)C=CC1=C2 [Aminopotentidine-2-NB590]	1.06	1.00	0.97	1.00	–
CN(C)CCC=C1c2ccccc2CCc2ccc(C(=O)NCCNC(=O)CCOCCOCCOCCOCCNC(=O)CCc3ccc4n3[B-](F)(F)[N+]3=C(c5ccc[nH]5)C=CC3=C4)cc21 [Amitriptyline-a-2-NB590]	–	–	–	–	NanoBRET Fold Response (GABBR1; tracer at 0.1μM): 0.93; NanoBRET Fold Response (GABBR1; tracer at 1μM): 0.91; NanoBRET Fold Response (MLNR; tracer at 0.1μM): 1.05; NanoBRET Fold Response (MLNR; tracer at 1μM): 1.05
CN(C)CCC=C1c2ccccc2CCc2ccc(C(=O)NCCNC(=O)CCOCCOCCOCCOCCNC(=O)CCc3ccc4n3[B-](F)(F)[N+]3=C(c5ccc[nH]5)C=CC3=C4)cc21 [Amitriptyline-b-2-NB590]	–	–	–	–	NanoBRET Fold Response (GABBR1; [1]): 1.11; NanoBRET Fold Response (GABBR1; tracer at 1μM, listed as amitriptyline-b-2-NB590): 0.85; NanoBRET Fold Response (MLNR; [1]): 1.19
CN(CCC=C1c2ccccc2CCc2ccccc21)C(=O)CCOCCOCCOCCOCCNC(=O)CCc1ccc2n1[B-](F)(F)[N+]1=C(c3ccc[nH]3)C=CC1=C2 [Amitriptyline-e-2-NB590]	–	–	–	–	NanoBRET Fold Response (GABBR1; tracer at 1μM): 1.09
COc1ccc2c(n1)c(CCNC(C)=O)cn2CCNC(=O)CCc1ccc2n1[B-](F)(F)[N+]1=C(c3ccc[nH]3)C=CC1=C2 [Azamelatonin-1-NB590]	–	–	–	–	NanoBRET Fold Response (GABBR1; 0.1μM tracer): 1.44; NanoBRET Fold Response (GABBR1; 1μM tracer): 1.44; NanoBRET Fold Response (MLNR; 0.1μM tracer): 1.00; NanoBRET Fold Response (MLNR; 1μM tracer): 0.92
COc1ccc2[nH]c(-c3ccc(CNC(=O)CCOCCOCCOCCOCCNC(=O)CCc4ccc5n4[B-](F)(F)[N+]4=C(c6ccc[nH]6)C=CC4=C5)cc3)c(CCNC(C)=O)c2n1 [AzomelatoninICO9-2-NB590]	–	–	–	–	NanoBRET Fold Response (GABBR1; 0.1μM tracer): 0.66; NanoBRET Fold Response (GABBR1; 1μM tracer): 0.57; NanoBRET Fold Response (MLNR; 0.1μM tracer): 0.60; NanoBRET Fold Response (MLNR; 1μM tracer): 0.87
O=C(CCOCCOCCOCCOCCNC(=O)CCc1ccc2n1[B-](F)(F)[N+]1=C(c3ccc[nH]3)C=CC1=C2)NCCCN1CCN(C2=Nc3cc(Cl)ccc3Nc3ccccc32)CC1 [Clozapine-a-2-NB590]	–	–	–	–	NanoBRET Fold Response (GABBR1; GABBR1, 0.1μM tracer): 0.96; NanoBRET Fold Response (GABBR1; GABBR1, 1μM tracer): 1.33; NanoBRET Fold Response (MLNR; MLNR, 0.1μM tracer): 0.94; NanoBRET Fold Response (MLNR; MLNR, 1μM tracer): 1.08
CN1CCN(C2=Nc3cc(Cl)ccc3Nc3ccc(CNC(=O)CCOCCOCCOCCOCCNC(=O)CCc4ccc5n4[B-](F)(F)[N+]4=C(c6ccc[nH]6)C=CC4=C5)cc32)CC1 [Clozapine-b-2-NB590]	–	–	–	–	NanoBRET Fold Response (GABBR1; GABBR1, 0.1μM tracer): 0.93; NanoBRET Fold Response (GABBR1; GABBR1, 1μM tracer): 1.38; NanoBRET Fold Response (MLNR; MLNR, 0.1μM tracer): 1.02; NanoBRET Fold Response (MLNR; MLNR, 1μM tracer): 1.41
CN1CCN(C2=Nc3cc(Cl)ccc3N(CC(=O)NCCOCCOCCOCCOCCNC(=O)CCc3ccc4n3[B-](F)(F)[N+]3=C(c5ccc[nH]5)C=CC3=C4)c3ccccc32)CC1 [Clozapine-c-2-NB590]	–	–	–	–	NanoBRET Fold Response (GABBR1; GABBR1, 0.1μM tracer): 0.97; NanoBRET Fold Response (GABBR1; GABBR1, 1μM tracer): 0.89; NanoBRET Fold Response (MLNR; MLNR, 0.1μM tracer): 0.66; NanoBRET Fold Response (MLNR; MLNR, 1μM tracer): 1.14
O=C(CCOCCOCCOCCOCCNC(=O)CCc1ccc2n1[B-](F)(F)[N+]1=C(c3ccc[nH]3)C=CC1=C2)NCCCN1CCN(C2=Nc3ccccc3Oc3ccc(Cl)cc32)CC1 [Loxapine-a-2-NB590]	1.03	0.92	1.20	1.16	–
COc1ccccc1N1CCN(CCCCN2C(=O)c3ccc(CNC(=O)CCOCCOCCOCCOCCNC(=O)CCc4ccc5n4[B-](F)(F)[N+]4=C(c6ccc[nH]6)C=CC4=C5)cc3C2=O)CC1 [NAN-190-2-NB590]	0.88	0.93	0.67	–	–
COc1ccccc1N1CCN(CCCCN2C(=O)c3ccc(CNC(=O)CCOCCNC(=O)c4ccc(CNC(=O)CCc5ccc6n5[B-](F)(F)[N+]5=C(c7ccc[nH]7)C=CC5=C6)cc4)cc3C2=O)CC1 [NAN-190-3-NB590]	0.80	1.07	1.32	0.66	–
O=C(CCc1ccc2n1[B-](F)(F)[N+]1=C(c3ccc[nH]3)C=CC1=C2)NCc1ccc(C(=O)NCCOCCC(=O)N[C@@H]2CC[C@@]3(O)[C@H]4Cc5ccc(O)c6c5[C@@]3(CCN4CC3CC3)[C@H]2O6)cc1 [Naltrexone-3-NB590]	0.93	0.49	1.44	0.69	–
Cc1cc2c(s1)Nc1ccccc1N=C2N1CCN(CCCNC(=O)CCOCCOCCOCCOCCNC(=O)CCc2ccc3n2[B-](F)(F)[N+]2=C(c4ccc[nH]4)C=CC2=C3)CC1 [Olanzapine-a-2-NB590]	0.94	1.20	1.27	1.15	–
O=C(CCc1ccc2n1[B-](F)(F)[N+]1=C(c3ccc[nH]3)C=CC1=C2)NCc1ccc(C(=O)NCCOCCOCCNCC(O)COc2cccc3ccccc23)cc1 (stereo not shown) [Propranolol-3-NB590]	–	–	–	–	NanoBRET Fold Response (GABBR1; GABBR1, 0.1μM): 1.10; NanoBRET Fold Response (GABBR1; GABBR1, 1μM): 1.05; NanoBRET Fold Response (MLNR; MLNR, 0.1μM): 1.01; NanoBRET Fold Response (MLNR; MLNR, 1μM): 1.02
O=C(CCc1ccc2n1[B-](F)(F)[N+]1=C(c3ccc[nH]3)C=CC1=C2)NCCOCCOCCNC(=O)OCCOCCN1CCN(C2=Nc3ccccc3Sc3ccccc32)CC1 [Quetiapine-a-2-NB590]	1.22	0.93	1.02	0.86	–
Cc1nc2n(c(=O)c1CCN1CCC(c3noc4cc(F)ccc34)CC1)CCCC2OC(=O)NCCOCCOCCOCCOCCNC(=O)CCc1ccc2n1[B-](F)(F)[N+]1=C(c3ccc[nH]3)C=CC1=C2 (stereo not shown) [Risperidone-2-NB590]	1.09	0.87	0.93	0.97	–
CC(C)N(CC[C@H](c1ccccc1)c1cc(CCNC(=O)CCOCCOCCOCCOCCNC(=O)CCc2ccc3n2[B-](F)(F)[N+]2=C(c4ccc[nH]4)C=CC2=C3)ccc1O)C(C)C [Tolterodine-2-NB590]	1.32	1.14	0.87	1.15	–
CC(C)N(CC[C@H](c1ccccc1)c1cc(CCNC(=O)c2ccc(CNC(=O)CCc3ccc4n3[B-](F)(F)[N+]3=C(c5ccc[nH]5)C=CC3=C4)cc2)ccc1O)C(C)C [Tolterodine-BZ-NB590]	0.92	0.87	1.06	1.05	–
CCCn1c(=O)c2[nH]c(-c3ccc(OCC(=O)NCCNC(=O)CCOCCNC(=O)c4ccc(CNC(=O)CCc5ccc6n5[B-](F)(F)[N+]5=C(c7ccc[nH]7)C=CC5=C6)cc4)cc3)nc2n(CCC)c1=O [XAC-3-NB590]	0.86	1.00	0.99	0.91	–
